Legend:
[1] = target: T1, Polyunsaturated fatty acid 5-lipoxygenase (Homo sapiens) (UniProt P09917); assay: Inhibition of 5LOX (unknown origin) using arachidonic acid as substrate at 0.1 uM after 5 mins by spectrophotometric analysis
T1 sequence (whole entry): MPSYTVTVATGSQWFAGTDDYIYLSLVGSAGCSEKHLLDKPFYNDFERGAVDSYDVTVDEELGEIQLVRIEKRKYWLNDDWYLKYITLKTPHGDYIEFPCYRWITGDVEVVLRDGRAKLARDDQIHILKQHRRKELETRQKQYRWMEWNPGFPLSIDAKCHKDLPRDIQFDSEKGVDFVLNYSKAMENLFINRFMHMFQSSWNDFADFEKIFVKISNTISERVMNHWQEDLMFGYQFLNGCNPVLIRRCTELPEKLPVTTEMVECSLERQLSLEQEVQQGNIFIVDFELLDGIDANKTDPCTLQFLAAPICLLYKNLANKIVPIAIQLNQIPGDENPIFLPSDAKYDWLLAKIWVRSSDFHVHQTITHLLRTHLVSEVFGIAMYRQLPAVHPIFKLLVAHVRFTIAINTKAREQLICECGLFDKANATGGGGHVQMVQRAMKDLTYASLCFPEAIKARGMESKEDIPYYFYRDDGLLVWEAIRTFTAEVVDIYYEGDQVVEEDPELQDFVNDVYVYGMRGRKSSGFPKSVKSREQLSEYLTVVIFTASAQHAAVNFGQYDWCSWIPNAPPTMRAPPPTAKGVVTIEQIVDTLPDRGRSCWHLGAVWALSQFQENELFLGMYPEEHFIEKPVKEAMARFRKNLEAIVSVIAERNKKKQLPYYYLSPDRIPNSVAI

[2] = target: T1, Polyunsaturated fatty acid 5-lipoxygenase (Homo sapiens); assay: Inhibition of 5LOX (unknown origin) using arachidonic acid as substrate at 1 uM after 5 mins by spectrophotometric analysis
[3] = target: T1, Polyunsaturated fatty acid 5-lipoxygenase (Homo sapiens); assay: Inhibition of 5LOX (unknown origin) using arachidonic acid as substrate at 10 uM after 5 mins by spectrophotometric analysis
[4] = target: T1, Polyunsaturated fatty acid 5-lipoxygenase (Homo sapiens); assay: Inhibition of 5LOX (unknown origin) using arachidonic acid as substrate at 0.01 uM after 5 mins by spectrophotometric analysis
[5] = target: T2, Polyunsaturated fatty acid 5-lipoxygenase (Homo sapiens, UniProt P09917); assay: Inhibition of 5LOX (unknown origin) using arachidonic acid as substrate after 5 mins by spectrophotometric analysis
T2 sequence (P09917 whole entry): T1 sequence (whole entry)

inhibition [1]	inhibition [2]	inhibition [3]	inhibition [4]	IC50 [5]	Compound
27.8%	63.8%	95.4%	0.9%	600 nM	Cc1ccc(S(=O)(=O)n2cc(C(=O)C(=O)N3CCCC3)c3ccccc32)cc1
25.6%	54.5%	68.6%	5.9%	1000 nM	COc1ccc2c(c1)c(C(=O)C(=O)N1CCCC1)cn2C(=O)/C=C/c1ccccc1
22%	53.8%	59.2%	4.7%	1000 nM	COc1ccc2c(c1)c(C(=O)C(=O)N1CCOCC1)cn2OS(=O)(=O)c1ccc(C)cc1
17.4%	54.2%	59.6%	6.8%	1000 nM	O=C(C(=O)N1CCCC1)c1cn(C(=O)c2ccccc2)c2ccccc12
21.1%	40.7%	59.2%	2.5%	5000 nM	O=C(C(=O)N1CCOCC1)c1cn(C(=O)/C=C/c2ccccc2)c2ccccc12
